In US7998995B2 (Exelixis Patent Company LLC, priority 2006, dated 2011) one finds EC50 data, which are given here for 32 compounds.

The subject of this experiment is T1, LXR.
T1 construct: fused on or other part: GST fused to the LBD in the FRET assay
In words: Measured EC50 or IC50 for LXR (LXRα and/or LXRβ; assay and subtype not given). Particulars: IC50 or EC50 class, subtype not specified. On the procedure:
Measured EC50 or IC50 for LXR, and FXR for Compounds of the Invention
LXR and FXR activities for various compounds of the invention are presented in the following table; those compounds with EC50 or IC50 values <10 μM for at least one of LXRα, LXRβ or FXR are considered to be active. In the following Table, IC50 or EC50 data is represented as follows: A<1 μM, B=1-10 μm, and C>10 μM.
As to `CS(=O)(=O)c1cccc(-c2ccc(OCc3cc(C(F)(F)F)nn3-c3ccccc3Cl)cc2Cl)c1` [Example 911, 5-({[2-chloro-3′-(methylsulfonyl)biphenyl-4-yl]oxy}methyl)-1-(2-chlorophenyl)-3-(trifluoromethyl)-1H-pyrazole], the EC50 is < 1000 nM.

Take `O=C(NCc1cccc(Cl)c1)c1cc(C(F)(F)F)nn1-c1cc(Cl)ccc1Cl` [Example 102, N-[(3-chlorophenyl)methyl]-1-(2,5-dichlorophenyl)-3-(trifluoromethyl)-1H-pyrazole-5-carboxamide]: the EC50 is > 10000 nM.

In the case of `CS(=O)(=O)c1cccc(-c2ccc(-n3cc(-c4ccsc4)nc3-c3cccc(Cl)c3Cl)cc2)c1` [Example 992, 2-(2,3-dichlorophenyl)-1-(3′-(methylsulfonyl)biphenyl-4-yl)-4-(thiophen-3-yl)-1H-imidazole], the EC50 is < 1000 nM.

As to `FC(F)(F)c1cc(COc2ccc(-n3cccc3)cc2)n(-c2c(Cl)cccc2Cl)n1` [Example 922, 1-(2,6-dichlorophenyl)-5-({[4-(1H-pyrrol-1-yl)phenyl]oxy}methyl)-3-(trifluoromethyl)-1H-pyrazole], the EC50 was < 1000 nM.

On to `CC1(C)CSC(c2cn(-c3ccc(-c4cccc(S(C)(=O)=O)c4)cc3Cl)c(-c3c(Cl)cccc3Cl)n2)=N1` [Example 940, 2-{1-[3-chloro-3′-(methylsulfonyl)biphenyl-4-yl]-2-(2,6-dichlorophenyl)-1H-imidazol-4-yl}-4,4-dimethyl-4,5-dihydro-1,3-thiazole], for which the EC50 is < 1000 nM.

Take `FC(F)(F)c1cc(COc2ccc(-n3ccnc3)cc2)n(-c2c(Cl)cccc2Cl)n1` [Example 923, 1-(2,6-dichlorophenyl)-5-({[4-(1H-imidazol-1-yl)phenyl]oxy}methyl)-3-(trifluoromethyl)-1H-pyrazole]: the EC50 is < 1000 nM.

In the case of `CC(C)(C)OC(=O)N1CCC[C@@H]1c1cn(-c2ccc(-c3cccc(S(C)(=O)=O)c3)cc2)c(-c2ccccc2C(F)(F)F)n1` [Example 1017, (R)-tert-butyl 2-(1-(3′-(methylsulfonyl)biphenyl-4-yl)-2-(2-(trifluoromethyl)phenyl)-1H-imidazol-4-yl)pyrrolidine-1-carboxylate], the EC50 was < 1000 nM.

`FC(F)(F)c1cc(COc2ccc(-c3ccccc3)cc2)n(-c2c(Cl)cccc2Cl)n1` [Example 924, 5-[(biphenyl-4-yloxy)methyl]-1-(2,6-dichlorophenyl)-3-(trifluoromethyl)-1H-pyrazole]: the EC50 was 1000 to 10000 nM.

As to `O=C(O)c1cc2cc(OCc3cc(C(F)(F)F)nn3-c3ccccc3Cl)ccc2[nH]1` [Example 9, 5-({[1-(2-chlorophenyl)-3-(trifluoromethyl)-1H-pyrazol-5-yl]methyl}oxy)-1H-indole-2-carboxylic acid], the EC50 is > 10000 nM.

Regarding `CS(=O)(=O)c1cccc(-c2ccc(-n3cc(C4CC4)nc3-c3ccccc3C(F)(F)F)cc2)c1` [Example 991, 4-cyclopropyl-1-(3′-(methylsulfonyl)biphenyl-4-yl)-2-(2-(trifluoromethyl)phenyl)-1H-imdazole], the EC50 is < 1000 nM.

Take `CS(=O)(=O)c1cccc(-c2ccc(-n3cc(N4CCCC4=O)nc3-c3c(Cl)cccc3Cl)cc2)c1` [Example 1005, 1-{2-(2,6-dichlorophenyl)-1-[3′-(methylsulfonyl)biphenyl-4-yl]-1H-imidazol-4-yl}pyrrolidin-2-one]: the EC50 was < 1000 nM.

As for `O=C(NCc1cccc(C(F)(F)F)c1)c1cc(C(F)(F)F)nn1-c1ccccc1Cl` [Example 106, 1-(2-chlorophenyl)-3-(trifluoromethyl)-N-{[3-(trifluoromethyl)phenyl]methyl}-1H-pyrazole-5-carboxamide], the EC50 was > 10000 nM.

Turning to `CC1(C)COC(c2cn(-c3ccc(-c4cccc(S(C)(=O)=O)c4)cc3)c(-c3c(Cl)cccc3Cl)n2)=N1` [Example 939, 2-{2-(2,6-dichlorophenyl)-1-[3′-(methylsulfonyl)biphenyl-4-yl]-1H-imidazol-4-yl}-4,4-dimethyl-4,5-dihydro-1,3-oxazole], the EC50 is < 1000 nM.

`CC(C)(c1ccccc1Cl)c1nc(C2CCCN2)cn1-c1ccc(-c2cccc(S(C)(=O)=O)c2)cc1` (centres unmarked) [Example 976, 2-[1-(2-Chlorophenyl)-1-methylethyl]-1-[3′-(methylsulfonyl)biphenyl-4-yl]-4-pyrrolidin-2-yl-1H-imidazole] displayed an EC50 of 1000 to 10000 nM.

For `CC(=O)c1cccc(NC(=O)Nc2cc(C(F)(F)F)nn2-c2ccccc2C(F)(F)F)c1` [Example 105, N-(3-acetylphenyl)-N′-{3-(trifluoromethyl)-1-[2-(trifluoromethyl)phenyl]-1H-pyrazol-5-yl}urea], the EC50 was > 10000 nM.

As for `CS(=O)(=O)c1cccc(-c2ccc(OCc3cc(C(F)(F)F)nn3-c3ccccc3Cl)c(Cl)c2)c1` [Example 908, 5-({[3-chloro-3′-(methylsulfonyl)biphenyl-4-yl]oxy}methyl)-1-(2-chlorophenyl)-3-(trifluoromethyl)-1H-pyrazole], the half-maximal effective concentration (EC50) lay in the range of 1000 to 10000 nM.

On to `CC1(C)CN=C(c2cn(-c3ccc(-c4cccc(S(C)(=O)=O)c4)cc3Cl)c(-c3c(Cl)cccc3Cl)n2)N1` [Example 942, 1′-[3-chloro-3′-(methylsulfonyl)biphenyl-4-yl]-2′-(2,6-dichlorophenyl)-5,5-dimethyl-4,5-dihydro-1H,1′H-2,4′-biimidazole], for which the EC50 is > 10000 nM.

For the compound `CC1COC(c2cn(-c3ccc(-c4cccc(S(C)(=O)=O)c4)cc3Cl)c(-c3c(Cl)cccc3Cl)n2)=N1` (centres unmarked) [Example 938, 2-{1-[3-chloro-3′-(methylsulfonyl)biphenyl-4-yl]-2-(2,6-dichlorophenyl)-1H-imidazol-4-yl}-4-methyl-4,5-dihydro-1,3-oxazole], the EC50 was < 1000 nM.

Take `CS(=O)(=O)c1cccc(CNC(=O)c2cc(C(F)(F)F)nn2-c2ccccc2Cl)c1` [Example 103, 1-(2-chlorophenyl)-N-{[3-(methylsulfonyl)phenyl]methyl}-3-(trifluoromethyl)-1H-pyrazole-5-carboxamide]: the EC50 was > 10000 nM.

With `Cc1noc(-c2cn(-c3ccc(-c4cccc(S(C)(=O)=O)c4)cc3Cl)c(-c3c(Cl)cccc3Cl)n2)n1` [Example 944, 5-{1-[3-chloro-3′-(methylsulfonyl)biphenyl-4-yl]-2-(2,6-dichlorophenyl)-1H-imidazol-4-yl}-3-methyl-1,2,4-oxadiazole], the EC50 was < 1000 nM.

Consider `CS(=O)(=O)c1cccc(-c2ccc(-n3cc(-c4cnco4)nc3-c3ccccc3Cl)c(Cl)c2)c1` [Example 1028, 5-(1-(3-chloro-3′-(methylsulfonyl)biphenyl-4-yl)-2-(2-chlorophenyl)-1H-imidazol-4-yl)oxazole], for which the EC50 was < 1000 nM.

In the case of `CS(=O)(=O)c1cccc(-c2ccc(-n3cc(-n4cccn4)nc3-c3c(Cl)cccc3Cl)cc2)c1` [Example 999, 1-{2-(2,6-dichlorophenyl)-1-[3′-(methylsulfonyl)biphenyl-4-yl]-1H-imidazol-4-yl}-1H-pyrazole], the EC50 is < 1000 nM.

Regarding `CS(=O)(=O)c1cccc(-c2ccc(-n3cc(-c4n[nH]c(=O)o4)nc3-c3ccccc3C(F)(F)F)cc2)c1` [Example 1023, 5-(1-(3′-(methylsulfonyl)biphenyl-4-yl)-2-(2-(trifluoromethyl)phenyl)-1H-imidazol-4-yl)-1,3,4-oxadiazol-2(3H)-one], the EC50 is < 1000 nM.

`CS(=O)(=O)c1cccc(-c2ccc(COc3cc(C(F)(F)F)nn3-c3c(Cl)cccc3Cl)cc2)c1` [Example 116, 1-(2,6-dichlorophenyl)-5-({[3′-(methylsulfonyl)biphenyl-4-yl]methyl}oxy)-3-(trifluoromethyl)-1H-pyrazole]: the EC50 is < 1000 nM.

As to `Cn1oc(=S)nc1-c1cn(-c2ccc(-c3cccc(S(C)(=O)=O)c3)cc2)c(-c2ccccc2C(F)(F)F)n1` [Example 1036], the EC50 is < 1000 nM.

On to `CS(=O)(=O)c1cccc(-c2ccc(-n3cc(C4(O)CC4)nc3-c3ccccc3Cl)cc2)c1` [Example 980, 1-(2-(2-chlorophenyl)-1-(3′-(methylsulfonyl)biphenyl-4-yl)-1H-imidazol-4-yl)cyclopropanol], for which the EC50 was < 1000 nM.

Take `O=C(O)Cc1ccc(-c2ccc(OCc3cc(C(F)(F)F)nn3-c3ccccc3Cl)cc2)cc1` [Example 98, [4′-({[1-(2-chlorophenyl)-3-(trifluoromethyl)-1H-pyrazol-5-yl]methyl}oxy)biphenyl-4-yl]acetic acid]: the EC50 is > 10000 nM.

`CS(=O)(=O)c1cccc(-c2ccc(NCc3cc(C(F)(F)F)nn3-c3ccccc3Cl)cc2)c1` [Example 928, N-{[1-(2-chlorophenyl)-3-(trifluoromethyl)-1H-pyrazol-5-yl]methyl}-3′-(methylsulfonyl)biphenyl-4-amine]: the EC50 was < 1000 nM.

On to `CC1(C)CN=C(c2cn(-c3ccc(-c4cccc(S(C)(=O)=O)c4)cc3)c(-c3c(Cl)cccc3Cl)n2)N1` [Example 943, 2′-(2,6-dichlorophenyl)-5,5-dimethyl-1′-[3′-(methysulfonyl)biphenyl-4-yl]-4,5-dihydro-1H,1′H-2,4′-biimidazole], for which the EC50 is > 10000 nM.

Turning to `CS(=O)(=O)c1cccc(-c2ccc(-n3cc(C4(C#N)CCOCC4)nc3-c3ccccc3C(F)(F)F)cc2)c1` [Example 1031, 4-(1-(3′-methylsulfonyl)biphenyl-4-yl)-2-(2-(trifluoromethyl)phenyl-1H-imidazol-4-yl)tetrahydro-2H-pyran-4-carbonitrile], the EC50 is < 1000 nM.

Consider `Cc1cc(-c2cccc(S(C)(=O)=O)c2)ccc1OCc1cc(C(F)(F)F)nn1-c1ccccc1Cl` [Example 909, 1-(2-chlorophenyl)-5-({[3-methyl-3′-(methylsulfonyl)biphenyl-4-yl]oxy}methyl)-3-(trifluoromethyl)-1H-pyrazole], for which the EC50 is < 1000 nM.

For the compound `CS(=O)(=O)c1cccc(-c2ccc(COc3cc(C(F)(F)F)nn3-c3c(Cl)cccc3Cl)c(F)c2)c1` [Example 117, 1-(2,6-dichlorophenyl)-5-({[3-fluoro-3′-(methylsulfonyl)biphenyl-4-yl]methyl}oxy)-3-(trifluoromethyl)-1H-pyrazole], the EC50 was < 1000 nM.
